From ChEMBL document CHEMBL1201862, “PubChem BioAssay data set” (2004)
Activity calls are given as the source filed them. Cut-off read from the data, not from the text of the source, for most assays here: actives have a measured EC50 and inactives only a lower limit.

Experiments:
[1] = target: T1, Heat shock factor protein 1 (Mus musculus, UniProt P38532); assay: inhibition of MG132-induced HSE-luciferase signal, confirmation, cell-based, NIH3T3, luminescence, dose retest (AID 2382); type: functional;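 note: NIH3T3 fibroblasts with HSF1-driven luciferase reporter stressed by proteasome inhibitor MG132; luminescence from HSF1-driven luciferase expression after 8 hours of MG132 stress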
T1 sequence (P38532 whole entry): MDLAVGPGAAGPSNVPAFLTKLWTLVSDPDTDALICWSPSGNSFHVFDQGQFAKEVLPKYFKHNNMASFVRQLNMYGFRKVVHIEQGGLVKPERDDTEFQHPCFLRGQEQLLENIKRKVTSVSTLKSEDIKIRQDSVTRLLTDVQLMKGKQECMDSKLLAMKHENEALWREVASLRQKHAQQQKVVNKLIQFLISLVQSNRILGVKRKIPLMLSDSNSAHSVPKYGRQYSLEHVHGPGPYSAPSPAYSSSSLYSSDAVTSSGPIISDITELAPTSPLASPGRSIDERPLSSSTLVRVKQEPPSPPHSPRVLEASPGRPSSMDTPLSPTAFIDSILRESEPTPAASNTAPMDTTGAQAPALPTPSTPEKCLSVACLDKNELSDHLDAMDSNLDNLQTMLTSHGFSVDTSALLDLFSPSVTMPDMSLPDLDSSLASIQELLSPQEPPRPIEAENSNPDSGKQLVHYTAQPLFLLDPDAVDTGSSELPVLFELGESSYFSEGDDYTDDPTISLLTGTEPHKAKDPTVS

Paired box protein Pax-8 = Paired box protein Pax-8 (Homo sapiens, UniProt Q06710); assay: inhibitors of PAX8-driven TPO luciferase reporter, dose response, RMG-I cells, cherry-pick (AID 687027); type: functional, cell-based;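 note: luciferase reporter driven by Pax8 target thyroperoxidase promoter measured by SteadyGlo luminescence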
H4 = assay: Luminescence Cell-Based Dose Response HTS to Identify Activators of 5'UTR Stem-Loop Driven Prion Protein mRNA Translation in H4 Neuroglioblastoma Cells. [Related pubchem assays: 1829 (Project Summary), 1814 (Primary HTS)]; type: functional; settings: Homo sapiens
[2] = inhibitors of intracellular T. cruzi replication, confirmation, NIH3T3 host cells, beta-gal luminescence (AID 2044); type: functional, cell-based;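 note: intracellular parasites grown in NIH/3T3 mouse fibroblasts as host cells; luminescent beta-galactosidase reporter signal from transgenic T. cruzi replicating inside host cells; inhibitors lower the luminescence signal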
[3] = cytotoxicity toward NIH3T3 fibroblasts, dose response, counter-screen, cell-based, ATP luminescence, mouse fibroblasts (AID 2010); type: functional; settings: NIH3T3;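 note: cells exposed to compound for about 90 hours before reading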
[4] = Luminescence Cell-Based Dose Retest to Confirm Inhibitors of Cancer Stem Cells. [Related pubchem assays (depositor defined):AID2717, AID2721]; type: functional; settings: Homo sapiens
[5] = system: Streptococcus sp. 'group A'; assay: growth inhibition of control SK(-) GAS strain, dose response, counter-screen for streptokinase expression inhibitor project, luminescence, kanamycin, BacTiterGlo, confirmation (AID 1900); type: functional, organism-based
Streptokinase A = target: T2, Streptokinase A (Streptococcus pyogenes serotype M1, UniProt P10520); assay: S. pyogenes streptokinase expression inhibitors, potency, dose response, plasminogen activation absorbance, OD405 (AID 1914); type: functional, Streptococcus pyogenes M1 GAS;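 note: secreted streptokinase activity via plasminogen activation per viability signal from cell pellet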
T2 sequence (P10520 whole entry): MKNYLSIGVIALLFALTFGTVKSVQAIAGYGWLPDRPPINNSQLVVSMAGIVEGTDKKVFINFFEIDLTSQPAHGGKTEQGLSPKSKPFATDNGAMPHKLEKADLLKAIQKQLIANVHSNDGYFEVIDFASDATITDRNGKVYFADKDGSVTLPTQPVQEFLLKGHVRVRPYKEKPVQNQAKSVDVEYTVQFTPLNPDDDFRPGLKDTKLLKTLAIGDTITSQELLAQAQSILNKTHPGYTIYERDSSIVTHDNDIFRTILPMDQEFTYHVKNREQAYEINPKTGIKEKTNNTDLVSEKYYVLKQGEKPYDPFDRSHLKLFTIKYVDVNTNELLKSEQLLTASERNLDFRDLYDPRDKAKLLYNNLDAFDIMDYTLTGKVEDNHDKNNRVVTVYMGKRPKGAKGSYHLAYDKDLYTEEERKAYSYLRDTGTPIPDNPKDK

Streptococcus = assay: Group A Streptococcus viability loss, dose response, counter-screen for streptokinase expression inhibitor project, luminescence, BacTiterGlo (AID 1915); type: functional, organism-based;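 note: potency for reduction of bacterial viability or growth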
Cytochrome P450 1A2 = target: T3, Cytochrome P450 1A2 (Homo sapiens, UniProt P05177);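 note: PubChem cytochrome P450 panel assay, CYP1A2 panel member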
T3 sequence (P05177 whole entry): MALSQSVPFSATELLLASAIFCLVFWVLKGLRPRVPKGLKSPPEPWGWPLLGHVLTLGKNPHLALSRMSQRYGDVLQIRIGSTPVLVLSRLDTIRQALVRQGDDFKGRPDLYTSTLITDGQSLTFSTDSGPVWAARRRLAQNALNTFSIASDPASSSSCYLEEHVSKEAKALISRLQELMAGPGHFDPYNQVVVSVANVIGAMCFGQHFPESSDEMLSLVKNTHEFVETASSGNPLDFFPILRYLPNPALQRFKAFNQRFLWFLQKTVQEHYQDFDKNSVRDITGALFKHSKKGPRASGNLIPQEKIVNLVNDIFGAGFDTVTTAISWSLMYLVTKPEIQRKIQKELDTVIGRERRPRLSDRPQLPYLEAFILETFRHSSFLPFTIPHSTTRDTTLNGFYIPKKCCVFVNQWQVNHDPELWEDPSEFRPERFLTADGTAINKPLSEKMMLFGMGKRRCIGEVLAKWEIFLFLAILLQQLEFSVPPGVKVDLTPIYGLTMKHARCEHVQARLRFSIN

Cytochrome P450 3A4 = Cytochrome P450 3A4 (Homo sapiens, UniProt P08684);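 note: CYP3A4 tested as one member of a cytochrome P450 panel screen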
Cytochrome P450 2C9 = Cytochrome P450 2C9 (Homo sapiens, UniProt P11712)
[6] = target: T4, Corticotropin-releasing factor receptor 2/Corticotropin-releasing factor-binding protein (Homo sapiens, UniProt P24387+Q13324); assay: Dose Response confirmation of uHTS hits for small molecule antagonists of the CRF-binding protein and CRF-R2 receptor complex.; type: functional; settings: read-out: IC50_Mean
T4 sequence (Q13324 whole entry): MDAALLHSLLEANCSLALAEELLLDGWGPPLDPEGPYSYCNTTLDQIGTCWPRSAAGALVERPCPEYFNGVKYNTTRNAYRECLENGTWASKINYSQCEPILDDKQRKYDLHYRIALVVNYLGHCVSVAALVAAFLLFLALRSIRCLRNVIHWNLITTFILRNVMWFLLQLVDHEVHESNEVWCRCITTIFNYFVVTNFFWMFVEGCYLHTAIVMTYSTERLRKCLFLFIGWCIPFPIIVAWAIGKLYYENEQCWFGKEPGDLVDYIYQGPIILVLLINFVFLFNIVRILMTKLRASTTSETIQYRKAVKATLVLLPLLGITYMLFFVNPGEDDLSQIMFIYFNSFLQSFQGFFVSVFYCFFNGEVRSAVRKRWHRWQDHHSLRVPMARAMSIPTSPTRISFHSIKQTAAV
T4 sequence (P24387 whole entry): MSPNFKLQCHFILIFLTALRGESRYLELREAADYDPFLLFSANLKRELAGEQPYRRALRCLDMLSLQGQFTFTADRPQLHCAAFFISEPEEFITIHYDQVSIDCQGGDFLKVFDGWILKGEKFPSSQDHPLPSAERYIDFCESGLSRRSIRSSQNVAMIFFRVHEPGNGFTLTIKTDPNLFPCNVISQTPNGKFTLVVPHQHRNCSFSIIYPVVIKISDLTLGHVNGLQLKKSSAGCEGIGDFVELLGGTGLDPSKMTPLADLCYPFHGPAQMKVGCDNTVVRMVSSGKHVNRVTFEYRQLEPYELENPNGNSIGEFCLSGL

[7] = target: T4, Corticotropin-releasing factor receptor 2/Corticotropin-releasing factor-binding protein; assay: activators of CRF receptor 2 with binding protein – uHTS hits, confirmation (AID 602473); type: functional; settings: read-out: EC50_Mean
[8] = target: T5, Ubiquitin-conjugating enzyme E2 N (Homo sapiens, UniProt P61088); type: functional;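 note: Dose-response confirmation in a TR-FRET assay detecting UBC13-driven polyubiquitin chain formation, inhibition measured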
T5 sequence (P61088 whole entry): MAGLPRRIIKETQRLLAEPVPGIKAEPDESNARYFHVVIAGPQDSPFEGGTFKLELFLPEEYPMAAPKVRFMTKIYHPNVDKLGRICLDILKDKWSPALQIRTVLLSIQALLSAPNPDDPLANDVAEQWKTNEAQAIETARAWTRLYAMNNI

Chain of Cytochrome P450 3A4 (P08684 whole entry): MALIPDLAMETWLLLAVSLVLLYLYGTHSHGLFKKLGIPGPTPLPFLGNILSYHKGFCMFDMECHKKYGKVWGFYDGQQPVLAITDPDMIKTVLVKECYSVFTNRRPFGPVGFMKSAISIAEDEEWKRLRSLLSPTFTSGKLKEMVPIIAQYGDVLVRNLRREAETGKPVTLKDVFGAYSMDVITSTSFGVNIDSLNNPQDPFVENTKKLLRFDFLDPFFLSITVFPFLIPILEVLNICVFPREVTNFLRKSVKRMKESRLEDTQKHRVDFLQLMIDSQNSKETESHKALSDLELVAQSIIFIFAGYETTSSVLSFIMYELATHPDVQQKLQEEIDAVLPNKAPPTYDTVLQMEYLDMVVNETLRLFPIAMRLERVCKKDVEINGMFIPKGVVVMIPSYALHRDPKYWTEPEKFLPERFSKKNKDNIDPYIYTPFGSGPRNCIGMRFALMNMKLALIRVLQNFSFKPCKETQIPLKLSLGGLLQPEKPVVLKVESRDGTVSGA
Chain of Paired box protein Pax-8 (Q06710 whole entry): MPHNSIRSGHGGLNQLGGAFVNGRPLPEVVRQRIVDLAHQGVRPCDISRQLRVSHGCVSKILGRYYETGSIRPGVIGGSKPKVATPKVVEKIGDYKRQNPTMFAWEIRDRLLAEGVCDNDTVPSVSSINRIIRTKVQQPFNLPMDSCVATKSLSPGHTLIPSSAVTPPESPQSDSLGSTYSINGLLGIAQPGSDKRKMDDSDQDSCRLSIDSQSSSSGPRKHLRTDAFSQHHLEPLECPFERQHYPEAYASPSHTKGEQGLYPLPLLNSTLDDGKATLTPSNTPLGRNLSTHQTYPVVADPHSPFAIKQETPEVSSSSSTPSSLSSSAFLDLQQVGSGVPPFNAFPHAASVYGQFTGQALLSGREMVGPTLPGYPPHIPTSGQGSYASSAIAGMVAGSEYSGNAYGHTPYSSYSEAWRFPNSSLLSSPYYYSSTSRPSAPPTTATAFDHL
Chain of Cytochrome P450 2C9 (P11712 whole entry): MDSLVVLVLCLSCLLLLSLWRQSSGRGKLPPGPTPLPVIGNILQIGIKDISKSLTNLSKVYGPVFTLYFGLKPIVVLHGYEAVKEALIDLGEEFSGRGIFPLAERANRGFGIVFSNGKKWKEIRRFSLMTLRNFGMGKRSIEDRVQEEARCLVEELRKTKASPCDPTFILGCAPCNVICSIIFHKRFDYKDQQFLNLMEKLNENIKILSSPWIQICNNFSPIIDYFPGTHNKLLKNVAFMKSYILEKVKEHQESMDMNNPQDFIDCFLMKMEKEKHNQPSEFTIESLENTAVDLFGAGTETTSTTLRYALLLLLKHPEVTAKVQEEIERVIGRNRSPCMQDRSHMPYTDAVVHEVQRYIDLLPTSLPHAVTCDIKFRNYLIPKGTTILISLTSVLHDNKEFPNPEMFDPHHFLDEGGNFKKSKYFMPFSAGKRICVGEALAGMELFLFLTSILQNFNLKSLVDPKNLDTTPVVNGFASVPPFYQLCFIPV

## O=C(N/N=C/c1ccc(O)cc1)c1[nH]c2ccc(Br)cc2c1-c1ccccc1
[1]
  EC50: 11.4 µM (active)
Paired box protein Pax-8
  AC50: 4.43 µM (active)

## Cc1ccc(CNC(=O)/C=C/c2cccs2)cc1
H4
  EC50: 1.28 µM (active)

## CCCNCC1C(Oc2ccc(Cl)cc2Cl)C(=O)N1c1cccc(C)c1C (stereo not given)
[2]
  EC50: 3.52 µM (active)
[3]
  EC50: > 60 µM (not active)
[4]
  AC50: 5.78 µM (active)

## CCCSc1nsc(NC(=O)C(c2ccccc2)c2ccccc2)n1
[5]
  EC50: 2.73 µM (active)
Streptokinase A
  EC50: 11.3 µM (active)
Streptococcus
  EC50: 6.12 µM (active)
[4]
  AC50: 2.87 µM (active)

## CCCC[C@@H]1C[C@H]1C(NC(=O)c1ccccc1)c1ccc(-c2ccccc2)cc1 (stereo not given in full)
Cytochrome P450 1A2
  AC50: 0.501 µM (inconclusive)
Cytochrome P450 3A4
  AC50: 7.94 µM (inconclusive)
Cytochrome P450 2C9
  AC50: 2 µM (inconclusive)

## Cc1nc2ccc(S(=O)(=O)NC(C(=O)NCc3cccs3)C(C)C)cc2s1 (stereo not given)
[1]
  EC50: > 195 µM (not active)

## Cc1cn(CC(=O)N2CCN(c3ccccn3)CC2)c(=O)[nH]c1=O
[6]
  IC50: > 47.1 µM (inactive)
[7]
  EC50: > 53 µM (inactive)

## COc1cc(C=O)ccc1Oc1cnccn1
[6]
  IC50: > 47.1 µM (inactive)
[7]
  EC50: > 53 µM (inactive)

## NN=C(S)Nc1ccccc1Cl
[1]
  EC50: > 195 µM (not active)

## Cc1ccc(CSCC(=O)N(C)CC(=O)Nc2ccc(C)cc2)cc1
[1]
  EC50: > 195 µM (not active)

## O=C(Nc1cccc(O)c1)c1cc(-c2ccccc2Cl)on1
[1]
  EC50: > 195 µM (not active)

## COc1ccccc1C(=O)Nc1nnc(SCC(=O)NCC2CCCO2)s1 (stereo not given)
[5]
  EC50: > 150 µM (not active)
H4
  EC50: > 120 µM (not active)
Streptokinase A
  EC50: > 150 µM (not active)
Streptococcus
  EC50: > 150 µM (not active)

## Cc1cc([N+](=O)[O-])ccc1NCc1ccccc1[N+](=O)[O-]
[6]
  IC50: > 47.1 µM (inactive)
[7]
  EC50: > 53 µM (inactive)

## Cc1ccc(NC(=S)NNC(=O)c2nnn(-c3ccccc3)c2C)cc1
[8]
  IC50: > 20 µM (inactive)

## CCCCCCCCCCS(=O)(=O)N/N=C/c1ccc([N+](=O)[O-])cc1
[4]
  AC50: 8.29 µM (active)

## Cc1nn(Cc2ccc(Cl)cc2)c(C)c1NC(=O)c1cc(-c2ccc3c(c2)OCO3)on1
[2]
  EC50: 1.99 µM (active)
[3]
  EC50: 3.87 µM (active)
[4]
  AC50: 0.486 µM (active)

## COc1ccc(NC(=O)c2[nH]cnc2C(=O)NCc2ccccc2)cc1
[8]
  IC50: > 20 µM (inactive)

## Cc1nc(NC(C)c2ccccc2)sc1C(=O)Nc1ccccc1 (stereo not given)
[1]
  EC50: > 195 µM (not active)

## CCC(CC)c1nc(C#N)c(NCc2ccccc2)o1
[1]
  EC50: 107 µM (active)

## COc1cc(NC(S)=NCc2ccco2)cc(OC)c1
[6]
  IC50: > 47.1 µM (inactive)
[7]
  EC50: > 53 µM (inactive)

## CN(C(=O)CCNC(=O)Cn1cnc2ccccc2c1=O)c1ccccc1F
[1]
  EC50: > 195 µM (not active)

## COc1ccc(CNc2cc([N+](=O)[O-])ccc2OC)cc1
[6]
  IC50: 11 µM (active)
[7]
  EC50: > 53 µM (inactive)

## COC(=O)c1cc(S(=O)(=O)NCc2ccc(F)cc2)cn1C
[1]
  EC50: > 195 µM (not active)

## CCOC(=O)N1CCc2c(sc(NC(=O)CN(CC)CC)c2C#N)C1
[8]
  IC50: > 20 µM (inactive)

## CCCCNC(=O)C(Sc1ccccc1)c1ccccc1 (stereo not given)
Paired box protein Pax-8
  AC50: 65.4 µM (active)

## CCC(c1nnc(SCC(=O)Nc2c(F)cccc2F)n1Cc1ccccc1)N(C)C (stereo not given)
[6]
  IC50: > 47.1 µM (inactive)
[7]
  EC50: > 53 µM (inactive)

## Cc1c(C)n(Cc2ccccc2)c2ncnc(N)c12
[8]
  IC50: > 20 µM (inactive)

## COc1ccc(/C=C/C(=O)N(C)CC(=O)Nc2cccc(F)c2)cc1S(=O)(=O)N1CCCCC1
[6]
  IC50: > 47.1 µM (inactive)
[7]
  EC50: > 53 µM (inactive)

## COc1cc(OC)cc(-c2sc3ccc(OC)cc3c2-c2ccc(O)cc2)c1
[4]
  AC50: 2.46 µM (active)

## O=C1CC(Nc2ccccc2)=NN1c1ccccc1
[4]
  AC50: 3.96 µM (active)
Cytochrome P450 3A4
  AC50: 28.2 µM (inconclusive)

## CC1CCc2[nH]c3ccc(C(=O)N(C)CC(=O)Nc4cccc(F)c4)cc3c2C1 (stereo not given)
[6]
  IC50: > 47.1 µM (inactive)
[7]
  EC50: > 53 µM (inactive)

## COc1ccc(Br)cc1CNC(=O)CCN1C(=O)COc2ccccc21
[1]
  EC50: > 195 µM (not active)

## CCCCCC(=O)N1CC2(CC(c3cccc(NC(=O)CC)c3)=NO2)C[C@H]1C(N)=O (stereo not given in full)
[6]
  IC50: > 47.1 µM (inactive)
[7]
  EC50: > 53 µM (inactive)

## Cc1nc2cnc(Nc3ccccc3)nc2n(CCc2ccccc2)c1=O
Cytochrome P450 1A2
  AC50: 2.51 µM (inconclusive)
Cytochrome P450 3A4
  AC50: 10 µM (inconclusive)

## CSCCC(NC(=O)c1ccccc1Br)C(=O)NNC(=O)c1csc(N2CCOCC2)n1 (stereo not given)
[8]
  IC50: > 20 µM (inactive)

## O=C(CCC(=O)c1ccc(Br)cc1)Nc1cccnc1
[1]
  EC50: > 195 µM (not active)

## Cc1ccc(NC(=O)C2CCCN2C(=O)c2cccs2)cc1C (stereo not given)
[6]
  IC50: > 47.1 µM (inactive)
[7]
  EC50: > 53 µM (inactive)

## COc1ccc(N2CCN(S(=O)(=O)c3cc4c(cc3C)N(C(C)=O)CCO4)CC2)cc1
[1]
  EC50: > 195 µM (not active)

## COc1ccc(C(=O)c2c[nH]cc2-c2ccccc2)cc1
[1]
  EC50: > 195 µM (not active)

## COc1cccc(-c2ccc3c(c2)[C@@H]2[C@@H](CCN2S(=O)(=O)c2ccccc2C)[C@H](CO)N3C)c1
Paired box protein Pax-8
  AC50: 10.4 µM (active)
